# Measured values published in publication PMC6829886, “Inhibition of Non-Small Cell Lung Cancer Cells by Oxy210, an Oxysterol-Derivative that Antagonizes TGFβ and Hedgehog Signaling” (Cells, 2019).
# Read-outs that look alike come from different tables or passages of the source.
# How the values were obtained:
# [1] = test system: GLI1, GLI2, SHH mRNA in A549 NSCLC cells; experiment: GLI and SHH mRNA expression in A549 cells (Q-RT-PCR); type: cell-based, human
# Procedure: Total RNA was extracted with the RNeasy Plus Mini Kit from Qiagen (Hilden, Germany) according to the manufacturer’s instructions. One microgram of RNA was reverse-transcribed using an iScript Reverse Transcription Supermix from Bio-Rad Laboratories (Hercules, CA, USA) to make single-stranded cDNA. The cDNAs were then mixed with Qi SYBR Green Supermix (Bio-Rad) for quantitative RT-PCR assay using a Bio-Rad I-cycler IQ quantitative thermocycler. All PCR samples were prepared in triplicate wells in a 96-well plate. After 40 cycles of PCR, melt curves were examined in order to ensure primer specificity. Fold changes in gene expression were calculated using the ΔΔCt method. Primers used for mouse were as follows: Oaz1 (5′-CCACTGCTTCGCCAGAGAG-3′) and (5′-CCCGGACCCAGGTTACTA-3′), Gli1 (5′- […]-3′ and 5′- GCT GATCCAGCCTAAGGTTCTC-3′), Ptch1 (5′-CCATCGGCGACAAGAACC-3′ and 5′-[…]-3′), Thbs1 (5′-[…]-3′ and 5′-CGGGGATCAGGTTGGCATT-3′), Cryab (5′-[…]-3′ and 5′-[…]-3′), Egr2 (5′-[…]-3′ and 5′-[…]-3′), CTGF (5′-GGGCCTCTTCTGCGATTTC-3′ and 5′-[…]-3′).
# Primers used for human were as follows: GAPDH (5′- […]-3′ and 5′- […]-3′), SHH (5′- CGGAGCGAGGAAGGGAAAG-3′) and (5′- […]-3′), GLI1 (5′- GAAGCCGAGCCGAGTATC-3′ and 5′-[…]-3′), GLI2 (5′-[…]-3′ and 5′-[…]-3′), Fn-EDA (5′- […]-3′ and 5′- […]-3′), E-Cadherin (5′- […]-3′ and 5′- TCCCAGGCGTAGACCAAGA-3′), SNAIL (5′- […]-3′ and 5′- […]-3′), N-Cadherin (5′- […]-3′ and 5′- […]-3′), Vimentin (5′- […]-3′ and 5′- […]-3′), ZO-1 (5′- […]-3′ and 5′- […]-3′), MMP2 (5′- […]-3′ and 5′- […]-3′), MMP9 (5′-[…]-3′ and 5′-[…]).
# Figure 6 Inhibition of Glis and SHH expression in Non-Small Cell Lung Cancer (NSCLC) cells. A549 (a) and H2030 (b) cells were treated with Oxy210 in RPMI 1640 containing 5% FBS for 72 h, then RNA was extracted and analyzed by Q-RT-PCR for the expression of the indicated genes and normalized to GAPDH expression. (c) A549 cells were pretreated for 2 h with Oxy210 in RPMI 1640 containing 5% FBS. […] After 48 h, RNA was extracted and analyzed by Q-RT-PCR for the expression of Gli1 and Shh and normalized to GAPDH expression. […]
# [2] = test system: EGF or Il-1β target gene expression (fibronectin, IL-6) in NIH3T3-E1 or A549 cells; experiment: Target gene expression after stimulation with EGF or Il-1β (pathway specificity); type: cell-based
# Description: We content that the biological properties of Oxy210 described here are specific inhibitory effects, by and large limited to Hh and TGF β signaling, rather than the result of nonspecific binding events and/or a pan inhibition of cellular signaling.
# H2030 cells = experiment: Cell counting (proliferation) assay in H2030 cells; type: cell-based, human; details: for IC50 / IC90: Homo sapiens, NCI-H2030
# Procedure: A549 and H2030 cells cultured in RPMI 1640 containing 5% FBS in 12 well-plates at 20% confluence were treated with Oxy210 for 6 days and then trypsinized, spun down and resuspended in fresh medium. For the Carboplatin (CP) and Oxy210 co-treatment experiments, A549 cells cultured in RPMI 1640 containing 2% FBS in 12 well-plates at 20% confluence were treated with CP at different concentrations in the presence or absence of Oxy210 for 6 days. For the TGFβ-induced drug resistance assay, A549 cells cultured in RPMI 1640 containing 2% FBS in 12 well-plates at 10% confluence were pre-treated with TGFβ1 alone or together with Oxy210 for 3 days, and then treated with 20 μM CP for 4 days. An aliquot of cell suspension was applied to a hemocytometer and the cells were then counted under a light microscope.
# Statistical analyses were performed using the StatView 5 program (SAS Institute, Cary, NC, USA). All p values were calculated using ANOVA and Fisher’s projected least significant difference (PLSD) significance test. A value of p < 0.05 was considered significant. The IC 50 dose-response curves shown in Figure 4b and Figure 7a–c were modeled using a five-parameter logistic model. This model allows for asymmetric curves and automatically estimates the mean maximum and minimum response. Based on this model, IC 50 values were estimated corresponding to the dose halfway between min and max response. Models of dose versus response and dose versus log response were also evaluated (see Supplementary Materials). The R square statistic was computed as a measure of model fit.
# Figure 7 Inhibition of NSCLC cell proliferation by Oxy210. A549 (a), (c) and H2030 (b) cells were treated with the test agents as indicated in RPMI 1640 containing 5% FBS for 5 days and then were trypsinized and counted as described in Methods and Materials section. Data from a representative experiment are reported as the mean of triplicate determinations ± SD (* p < 0.05 vs. control; ** p < 0.01 vs. control).
# Liver X Receptor (LXR) = type: cell-based; details: mouse
# [3] = test system: TGFβ induced activity of SBE-luciferase reporter; experiment: SBE-luciferase (Smad response-element) reporter assay in NIH3T3-E1 cells; type: cell-based, mouse; details: 48 hrs
# Procedure: NIH3T3-E1 cells cultured in 24 well-plates at 90% confluence were transiently transfected with 0.1 μg of Smad response-element reporter (SBE-Luciferase) plasmid (Qiagen), or with 0.1 μg of Gli response-element reporter (pGL3b-8xGli-Luciferase) plasmid, and 10 ng of pSV40-Renilla-Luciferase plasmid (Promega, Madison, WI, USA) with or without co-transfection with 10ng of Gli1 overexpression vector, pSRα-Gli1 using a Lipofectamine LTX Plus transfection reagent, as previously described [23]. […] 6 hrs after transfection, cells were treated with test agents for 72 h. […] Twenty-four hours after transfection, cells were treated with test agents for 20 h. Then the firefly and Renilla luciferase activities were measured using a dual luciferase kit (Promega) and a GloMax-96 Microplate Luminometer (Promega) or a plate reader-SpectraMax iD3 (Molecular Devices, San Jose, CA, USA). The firefly luciferase activities were normalized to the Renilla luciferase activities.
# (d) NIH3T3 cells cultured in 24 well-plates were transfected with a Smad response element reporter (SBE-Luciferase) plasmid and a pTK-Renilla-Luciferase plasmid. 6 hrs after transfection, cells were treated with the test agents as indicated for 48 hrs. Luciferase activity was measured and normalized to the Renilla luciferase activity.
# TβRI = experiment: Smad responsive luciferase reporter (CAGA12-Luc) in R1BL17 cells transfected with TGFβRI (WT or TD mutant); type: cell-based, mink; details: 20 h
smiles,measurement,setting,value
"C[C@]12CC[C@H]3[C@@H](CC=C4C[C@@H](O)CC[C@@]43C)[C@@H]1CC[C@@H]2[C@](C)(O)CCc1cccnc1 [Oxy210, (3S,8S,9S,10R,13S,14S,17S)-17-((R)-2-hydroxy-4-(pyridin-3-yl)butan-2-yl)-10,13-dimethyl-2,3,4,7,8,9,10,11,12,13,14,15,16,17-tetradecahydro-1H-cyclopenta[a]phenanthren-3-ol]",mRNA expression of GLI1 and GLI2,"[1]; 5 μM, 72 h",significantly inhibited
same,expression of SHH mRNA,[1]; 72 h,significantly inhibited
same,expression of GLI1 and SHH mRNA induced by TGFβ,"[1]; TGFβ 10 ng/mL, 48 h",completely inhibited
same,"inhibition of EGF or Il-1β target gene expression (fibronectin, IL-6)",[2],did not result in significant inhibition
same,"IC10 Estimate, dataset 3 - Fig 7b, log 10 scale Y","H2030 cells; H2030 cells/well, log 10 scale Y",1.89
same,"IC10 Estimate, dataset 3 - Fig 7b, original scale Y","H2030 cells; H2030 cells/well, original scale Y",0.42 µM
same,IC50,"H2030 cells; H2030 cells, 5% FBS, ± SE, read-out: IC50, anti-proliferative effect (cell counting)",1.66 ± 0.25 µM
same,IC50,"H2030 cells; H2030 cells/well, log 10 scale Y, read-out: IC 50 Estimate, dataset 3 - Fig 7b, log 10 scale Y (converted)",2.52 µM
same,IC90,"H2030 cells; H2030 cells/well, log 10 scale Y, read-out: IC90 Estimate, dataset 3 - Fig 7b, log 10 scale Y (converted)",3.37 µM
same,IC90,"H2030 cells; H2030 cells/well, original scale Y, read-out: IC90 Estimate, dataset 3 - Fig 7b, original scale Y",4.09 µM
same,ABCA1 expression,Liver X Receptor (LXR),absence of ABCA1 expression
same,TGFβ induced activity of SBE-luciferase reporter,[3],significantly inhibited
same,activity of Smad responsive reporter stimulated by TGFβ-activated RI or ligand independent RI_TD,TβRI,significantly inhibited
